Data from patent US20030216471A1, “Retinoid formulations for aerosolization and inhalation” (priority 2003, published 2003).
Where “and” joins values, the source holds several entries; their conditions need not be identical. Identical values can stand only once. Entries after “also recorded” stand apart in the source; their conditions may differ. Marks after values point to notes of the source that are not given here.

Tests used:
[1] = system: TGase II; assay: TGase II assay of rat liver tissue after inhaled 13-cis RA (experiment B); assay type: in vivo; conditions: for TGase II assay, rat liver: 14 days
Experimental: The experimental groups were as follows (Table 1): 1. Vehicle control: rats (3) inhaled vehicle for 240 minutes; 2.
For liver tissue, a piece of approximately 100-400 mg was used. Tissue was diced in small pieces and homogenized in approximately 2 volumes of scraping buffer for 2-3 minutes at 4° C. Samples were centrifuged at 14,000 xg for 30 minutes at 4° C. The supernatant was removed and kept in ice until used.
Enzyme assay mixtures were prepared by adding 80 μl of SUBSTRATE mixture (322.8 μl H2O, 120 μl 0.5M NaBorate, 60 μl 0.01M EDTA, 60 μl 0.1M CaCl2, 6 μl 1M DTT, 240 μl dimethyl casein, 30 μl Triton X-100, 1.21 μl [^3H]-Putrescine, 120 μl Putrescine) to 20 μl sample, 20 μl scraping buffer for blank control, 20 μl (18 μl scraping buffer+2 μl TGase II) for positive control. Samples were mixed in 15 ml tubes, the tubes were shaken before putting them into a 28° C. water bath for 30 minutes. Reactions were slowed down in an ice bath. 80 μl of the incubation mixture was adsorbed onto paper disks. These were immediately dropped into cold 10% TCA (0.1% Putrescine) and washed with agitation for 7 minutes, followed by 2 additional washes with 5% TCA (0.05% putrescine) for 5-7 minutes, and once more with cold (−20° C.) 95% ethanol for 5 minutes. Paper disks were dried and placed into 5 ml Aquasol, and counted in a Liquid Scintillation Counter. Protein concentration determination was conducted by the Bradford method.

[2] = system: A/J mice; assay: Lung carcinogenesis model: carcinogen-treated A/J mice exposed to isotretinoin aerosols; assay type: in vivo, mouse; conditions: for Efficacy (Carcinogen): 10-16 weeks; for non-significant reduction of tumor multiplicity: low dose; for reduction in multiplicity of tumor nodules: mid isotretinoin dose
Text: The A/J mouse is a well-established animal model for preclinical chemoprevention studies. This strain has a hereditary predisposition for lung cancer, the so-called pulmonary adenoma susceptibility (Pas) genes. A strong candidate for one of these genes, Pas-1, is the K-ras protooncogene. Carcinogenesis in this model with NNK as the inciting agent has been studied so that the times required to develop hyperplastic areas, adenomas, and carcinomas are well known. In addition, the timing of molecular changes associated with carcinogenesis has been studied and are similar to those in humans. In both species, K-ras mutations are common early events.
Powdered isotretinoin was dissolved in 100% ethanol plus 0.1% α-tocopherol and 0.1% ascorbyl palmitate to give concentrations of isotretinoin ranging from 0.1 to 10 mg/ml. The formulations were prepared monthly. The solutions were protected from light and stored at −5° C. until use. Ultraviolet-visible spectrophotometric verification of the formulated test article concentration was performed on all batches in advance of inhalation treatments with the test article solution. Only formulations within ±10% of the targeted concentration were used on study.
Within 24 h of the last inhalation exposure, animals were euthanized by intraperitoneal injection of pentobarbital and their lungs were removed and fixed in Bouin's solution or flash frozen for RAR determination. The lungs were evaluated in a blinded fashion so that neither carcinogen nor isotretinoin dose levels were known to the evaluator, who visually counted hyperplastic areas and adenomas on the lung pleural surface as previously described. The significance of the differences between the mean tumor incidence of the treatment and the control groups was determined using the Mann-Whitney Rank Sum test (Statmost TM, DataMost Corp., Sandy, Utah).

[3] = BaP, weekly pulmonary dose 0.25 mg/kg
[4] = BaP, weekly pulmonary dose 4.0 mg/kg
[5] = NNK and BaP, A/J mice, inhalation
[6] = NNK, weekly pulmonary dose 0.25 mg/kg
[7] = NNK, weekly pulmonary dose 4.0 mg/kg
[8] = Urethane, weekly pulmonary dose 0.25 mg/kg
[9] = Urethane, weekly pulmonary dose 4.0 mg/kg

CC1=C(/C=C/C(C)=C/C=C/C(C)=C\C(=O)O)C(C)(C)CCC1 [13-cis RA, 13-cis-Retinoic Acid]
TGase II assay, rat liver ([1]; High dose): 19719 DPM/μg protein | TGase II assay, rat liver ([1]; High dose: 1872 μg/kg total deposited): 0.271+/−0.015 picomoles/μg protein/30 min and 0.271 ± 0.015 picomoles/μg protein/30 min | TGase II assay, rat liver ([1]; Low dose, vehicle 20426): 22705 DPM/μg protein | TGase II assay, rat liver ([1]; Low dose: 39 μg/kg total deposited, vehicle 0.260): 0.289+/−0.007 picomoles/μg protein/30 min and 0.289 ± 0.007 picomoles/μg protein/30 min | TGase II assay, rat liver ([1]; Low-Middle dose): 21448 DPM/μg protein | TGase II assay, rat liver ([1]; Low-Middle dose: 117 μg/kg total deposited): 0.273+/−0.018 picomoles/μg protein/30 min and 0.273 ± 0.018 picomoles/μg protein/30 min | TGase II assay, rat liver ([1]; Middle dose): 24590 DPM/μg protein | TGase II assay, rat liver ([1]; Middle dose: 351 μg/kg total deposited): 0.313+/−0.025 picomoles/μg protein/30 min and 0.313 ± 0.025 picomoles/μg protein/30 min | TGase II assay, rat liver ([1]; Middle-High dose): 20348 DPM/μg protein | TGase II assay, rat liver ([1]; Middle-High dose: 936 μg/kg total deposited): 0.269+/−0.015 picomoles/μg protein/30 min and 0.269 ± 0.015 picomoles/μg protein/30 min | effect of inhaled 13-cis RA on liver TGase II activity ([1]; rat, up to 5.93 mg/kg of inhaled dose): without significant effect; also recorded: fails to significantly alter; also recorded: no significant effect | Efficacy (Carcinogen) ([2]; 0.24 mg/kg weekly total deposited (inh), NNK, BaP, Maybe = trend for efficacy): Maybe | Efficacy (Carcinogen) ([2]; 0.24 mg/kg weekly total deposited (inh), urethane): No | Efficacy (Carcinogen) ([2]; 1.6 mg/kg weekly total deposited (inh), NNK, BaP): Yes | Efficacy (Carcinogen) ([2]; 1.6 mg/kg weekly total deposited (inh), urethane): No | Efficacy (Carcinogen) ([2]; 24.9 mg/kg weekly total deposited (inh), urethane, NNK, BaP): Yes (urethane, NNK, BaP) | Hyperplastic Areas Per Lung Set (Mean ± SE) ([2]; BaP, weekly pulmonary dose 0.04 mg/kg, vehicle control 0.2): 0.8 ± 0.3 | Tumors Per Lung Set (Mean ± SE) ([2]; BaP, weekly pulmonary dose 0.04 mg/kg, vehicle control 9.0): 6.4 ± 0.7^f | Total Lesions Per Lung Set (Mean ± SE) ([2]; BaP, weekly pulmonary dose 0.04 mg/kg, vehicle control 9.2): 7.2 ± 0.8 | Hyperplastic Areas Per Lung Set (Mean ± SE) [2, 3]: 3.2 ± 0.4^d | Total Lesions Per Lung Set (Mean ± SE) [2, 3]: 6.1 ± 0.5^b | Tumors Per Lung Set (Mean ± SE) [2, 3]: 3.0 ± 0.5^d | Hyperplastic Areas Per Lung Set (Mean ± SE) [2, 4]: 3.3 ± 0.9^d | Total Lesions Per Lung Set (Mean ± SE) [2, 4]: 5.2 ± 1.0^b | Tumors Per Lung Set (Mean ± SE) [2, 4]: 1.8 ± 0.5^d | weekly pulmonary dose with evidence of efficacy (as low as) [2, 5]: 0.25 mg/kg | weekly pulmonary dose with suggested efficacy [2, 5]: 0.04 mg/kg | Hyperplastic Areas Per Lung Set (Mean ± SE) ([2]; NNK, weekly pulmonary dose 0.04 mg/kg, vehicle control 1.3): 2.0 ± 0.4 | Tumors Per Lung Set (Mean ± SE) ([2]; NNK, weekly pulmonary dose 0.04 mg/kg, vehicle control 2.5): 2.1 ± 0.3^e | Total Lesions Per Lung Set (Mean ± SE) ([2]; NNK, weekly pulmonary dose 0.04 mg/kg, vehicle control 3.8): 4.1 ± 0.6 | Hyperplastic Areas Per Lung Set (Mean ± SE) [2, 6]: 3.3 ± 0.3^d | Total Lesions Per Lung Set (Mean ± SE) [2, 6]: 3.6 ± 0.3 | Tumors Per Lung Set (Mean ± SE) [2, 6]: 0.3 ± 0.2^d | Hyperplastic Areas Per Lung Set (Mean ± SE) [2, 7]: 3.8 ± 0.6^c | Total Lesions Per Lung Set (Mean ± SE) [2, 7]: 4.5 ± 0.7 | Tumors Per Lung Set (Mean ± SE) [2, 7]: 0.8 ± 0.3^d | Hyperplastic Areas Per Lung Set (Mean ± SE) ([2]; Urethane, weekly pulmonary dose 0.04 mg/kg, vehicle control 4.6): 3.6 ± 1.1 | Tumors Per Lung Set (Mean ± SE) ([2]; Urethane, weekly pulmonary dose 0.04 mg/kg, vehicle control 24.2): 25.7 ± 1.7 | Total Lesions Per Lung Set (Mean ± SE) ([2]; Urethane, weekly pulmonary dose 0.04 mg/kg, vehicle control 29.2): 29.3 ± 1.5 | Hyperplastic Areas Per Lung Set (Mean ± SE) [2, 8]: 5.9 ± 1.2 | Total Lesions Per Lung Set (Mean ± SE) [2, 8]: 32.2 ± 2.4 | Tumors Per Lung Set (Mean ± SE) [2, 8]: 26.4 ± 2.1 | Hyperplastic Areas Per Lung Set (Mean ± SE) [2, 9]: 5.3 ± 1.3 | Total Lesions Per Lung Set (Mean ± SE) [2, 9]: 15.9 ± 1.9^d | Tumors Per Lung Set (Mean ± SE) [2, 9]: 10.6 ± 1.2^d | effect of treatment on numbers of tumors ([2]; low (lowest) isotretinoin dose): not affected by treatment at the 95% confidence level; also recorded: not significantly effective | non-significant reduction of tumor multiplicity ([2]; BaP-treated mice (p<0.13)): 30% | non-significant reduction of tumor multiplicity ([2]; NNK-treated mice (p<0.30)): 16% | reduction in multiplicity of tumor nodules ([2]; BaP-treated mice): 67% | reduction in multiplicity of tumor nodules ([2]; NNK-treated mice): 88%
